# Data reported in patent US20100143890A1 (priority 2008, published 2010).
# Tested on: AI virus proteins (3425P and 3427P, ProSci Inc.); H5 protein
# Type: binding, avian influenza virus
row,SMILES,binding properties compared with commercially available antibody
1,CC(=O)N[C@H]1[C@H]([C@H](O)[C@H](O)CO)O[C@@](O[C@H]2[C@@H](O)[C@@H](CO)O[C@@H](O[C@H]3[C@H](O)[C@@H](O)C(O)O[C@@H]3CO)[C@@H]2O)(C(=O)O)C[C@@H]1O (some centres unmarked) [3-silaiic-lactose],not active
2,CC(=O)NC1C(O)CC(OCC2OC(OC3C(CO)OC(O)C(O)C3O)C(O)C(O)C2O)(C(=O)O)OC1C(O)C(O)CO (centres unmarked) [6′-sialic lactose],not active
